# Test system: B. cepacia biofilm
# Assay type: cell-based, Burkholderia cepacia
smiles,measurement,value
"O=[O+][O-] [ozone, Ozone]","biocide efficacy (rank order, from cell number/3000 μm^2 and total cell area vs elapsed time)",greatest

# From patent publication US6498862B1 (priority 1999, dated 2002)
